The target of the test is Neuronal acetylcholine receptor subunit alpha-7 (Homo sapiens, UniProt P36544). As to the kind of experiment: Positive allosteric modulator activity at human alpha7 nAChR expressed in rat GH4C1 cells assessed as potentiation of acetylcholine-induced response by FDSS Ca2+ assay. The test is classed as cell-based, GH4-C1.
Sequence of Neuronal acetylcholine receptor subunit alpha-7 (P36544 whole entry): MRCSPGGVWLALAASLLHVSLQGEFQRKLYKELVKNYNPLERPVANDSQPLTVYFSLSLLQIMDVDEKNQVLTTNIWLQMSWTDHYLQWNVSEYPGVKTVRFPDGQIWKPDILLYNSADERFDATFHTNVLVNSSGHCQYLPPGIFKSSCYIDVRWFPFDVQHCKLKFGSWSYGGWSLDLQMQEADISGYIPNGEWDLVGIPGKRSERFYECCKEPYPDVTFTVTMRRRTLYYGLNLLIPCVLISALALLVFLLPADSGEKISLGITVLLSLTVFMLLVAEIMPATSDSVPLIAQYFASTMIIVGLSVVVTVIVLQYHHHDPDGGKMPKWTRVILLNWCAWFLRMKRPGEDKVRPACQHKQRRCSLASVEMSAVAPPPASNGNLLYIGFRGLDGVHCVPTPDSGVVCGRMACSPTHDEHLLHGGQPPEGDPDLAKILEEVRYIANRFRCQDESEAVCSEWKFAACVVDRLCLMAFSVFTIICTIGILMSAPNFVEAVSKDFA

With `C[C@H](NC(=O)[C@H]1C[C@@H]1c1ccccc1)c1ccc(S(C)(=O)=O)nc1`, the concentration for a half-maximal effect (EC50) turned out to be 2000 nM.
